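Where inhibition never reached the appropriate level, the endpoint shown equals the highest concentration tested. Otherwise, values were interpolated linearly from a five-concentration, 48-hour dose response in 96-well plates. Here, GI50 denotes the concentration required for 50% inhibition of growth.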 Activity calls are given as the source filed them. No stated cut-off is given here; in the data, active = GI50 up to about 1.1 µM and inactive = higher.
How the values were obtained:
Assay in all cases: DTP human tumour cell line panel, 48 h
[1] = tested on: 786-0
[2] = tested on: A498
[3] = tested on: A549
[4] = tested on: ACHN
[5] = tested on: CAKI-1
[6] = tested on: CCRF-CEM
[7] = tested on: COLO 205
[8] = tested on: DLD-1
[9] = tested on: DMS-114
[10] = tested on: DMS-273
[11] = tested on: EKVX
[12] = tested on: HCC 2998
[13] = tested on: HCT-116
[14] = tested on: HCT-15
[15] = tested on: HL-60
[16] = tested on: HOP-18
[17] = tested on: HOP-62
[18] = tested on: HOP-92
[19] = tested on: HT-29
[20] = tested on: IGROV-1
[21] = tested on: K562
[22] = tested on: KM-20L2
[23] = tested on: KM12
[24] = tested on: LOX IMVI
[25] = tested on: LXFL 529
[26] = tested on: M14
[27] = tested on: M19-MEL
[28] = tested on: MOLT-4
[29] = tested on: Malme-3M
[30] = tested on: NCI-H226
[31] = tested on: NCI-H23
[32] = tested on: NCI-H460
[33] = tested on: NCI-H522
[34] = tested on: OVCAR-3
[35] = tested on: OVCAR-4
[36] = tested on: OVCAR-5
[37] = tested on: OVCAR-8
[38] = tested on: RPMI-8226
[39] = tested on: RXF 393
[40] = tested on: SF-268
[41] = tested on: SF-295
[42] = tested on: SF-539
[43] = tested on: SK-MEL-28
[44] = tested on: SK-MEL-2
[45] = tested on: SK-MEL-5
[46] = tested on: SK-OV-3
[47] = tested on: SN12C
[48] = tested on: SNB-19
[49] = tested on: SNB-75
[50] = tested on: SNB-78
[51] = tested on: SR
[52] = tested on: SW-620
[53] = tested on: TK-10
[54] = tested on: U-251
[55] = tested on: UACC-257
[56] = tested on: UACC-62
[57] = tested on: UO-31
[58] = tested on: XF498

With `S=c1sc2c(Cl)nc(Cl)nc2n1-c1ccccc1` the GI50 [1] was > 100 µM (inactive), the GI50 [2] was > 100 µM (inactive) and the GI50 [3] was > 100 µM (inactive). The GI50 [4] was > 100 µM (inactive), the GI50 [5] was > 100 µM (inactive) and the GI50 [6] was 23.1 µM (inactive). For the same compound, the GI50 [7] was > 100 µM (inactive), the GI50 [8] was 16.2 µM (inactive) and the GI50 [9] was 14.2 µM (inactive). The GI50 [10] was 45.9 µM (inactive), the GI50 [11] was 61 µM (inactive) and the GI50 [12] was 52.4 µM (inactive). The GI50 [13] was 16.4 µM (inactive), the GI50 [14] was 18.1 µM and the GI50 [15] was 23.5 µM (inactive). The GI50 [16] was > 100 µM (inactive), the GI50 [17] was 59.6 µM (inactive) and the GI50 [18] was > 100 µM (inactive). For the same compound, the GI50 [19] was 33 µM (inactive), the GI50 [20] was 18.2 µM (inactive) and the GI50 [21] was 29 µM (inactive). The GI50 [22] was 52.6 µM (inactive), the GI50 [23] was > 100 µM (inactive) and the GI50 [24] was 34.8 µM (inactive). The GI50 [25] was 17.9 µM (inactive), the GI50 [26] was 21.1 µM (inactive) and the GI50 [27] was 16.4 µM (inactive). For the same compound, the GI50 [28] was 32.4 µM (inactive), the GI50 [29] was 8.11 µM (inactive) and the GI50 [30] was 61.2 µM (inactive). The GI50 [31] was 15.7 µM (inactive), the GI50 [32] was > 100 µM (inactive) and the GI50 [33] was 11.5 µM (inactive). For the same compound, the GI50 [34] was 22.9 µM (inactive), the GI50 [35] was 41.3 µM (inactive) and the GI50 [36] was > 100 µM (inactive). The GI50 [37] was 36.6 µM (inactive), the GI50 [38] was > 100 µM (inactive) and the GI50 [39] was 21.6 µM (inactive). For the same compound, the GI50 [40] was 11.1 µM (inactive), the GI50 [41] was > 100 µM (inactive) and the GI50 [42] was > 100 µM (inactive). The GI50 [43] was 15.6 µM (inactive), the GI50 [44] was 31.7 µM (inactive) and the GI50 [45] was 64.4 µM (inactive). The GI50 [46] was > 100 µM (inactive), the GI50 [47] was 46.2 µM (inactive) and the GI50 [48] was > 100 µM (inactive). The GI50 [49] was 82.6 µM (inactive), the GI50 [50] was 13.3 µM (inactive) and the GI50 [51] was 22.3 µM (inactive). The GI50 [52] was 27.2 µM (inactive), the GI50 [53] was > 100 µM (inactive) and the GI50 [54] was 31 µM (inactive). For the same compound, the GI50 [55] was 53 µM (inactive), the GI50 [56] was 14.6 µM (inactive) and the GI50 [57] was > 100 µM (inactive). For the same compound, the GI50 [58] was 94.2 µM (inactive).
For `COC(=O)Nc1nc2cc(Br)ccc2[nH]1`, the GI50 [1] was 53.2 µM (inactive), the GI50 [2] was 67.8 µM (inactive) and the GI50 [3] was 50.8 µM (inactive). The GI50 [4] was 95.5 µM (inactive), the GI50 [6] was 32.2 µM (inactive) and the GI50 [7] was 23.8 µM (inactive). The GI50 [8] was 42.3 µM (inactive), the GI50 [9] was 23.1 µM (inactive) and the GI50 [10] was 16 µM (inactive). The GI50 [11] was > 100 µM (inactive), the GI50 [12] was 33.6 µM (inactive) and the GI50 [13] was 57 µM (inactive). The GI50 [14] was 8.34 µM, the GI50 [15] was 13.3 µM (inactive) and the GI50 [16] was 64.1 µM (inactive). The GI50 [17] was 57.3 µM (inactive), the GI50 [18] was > 100 µM (inactive) and the GI50 [19] was 16 µM (inactive). The GI50 [20] was 35.9 µM (inactive), the GI50 [21] was 17.6 µM (inactive) and the GI50 [22] was 21.2 µM (inactive). For the same compound, the GI50 [23] was 9.29 µM (inactive), the GI50 [24] was > 100 µM (inactive) and the GI50 [25] was 47.2 µM (inactive). The GI50 [26] was 43.9 µM (inactive), the GI50 [27] was 28.8 µM (inactive) and the GI50 [28] was 53.8 µM (inactive). The GI50 [29] was 37.1 µM (inactive), the GI50 [30] was > 100 µM (inactive) and the GI50 [31] was 32.7 µM (inactive). The GI50 [32] was 24.9 µM (inactive), the GI50 [33] was 14.4 µM (inactive) and the GI50 [34] was 28.5 µM (inactive). The GI50 [35] was > 100 µM (inactive), the GI50 [36] was 60.1 µM (inactive) and the GI50 [37] was 32.6 µM (inactive). The GI50 [38] was 51.9 µM (inactive), the GI50 [39] was 25.8 µM (inactive) and the GI50 [40] was > 100 µM (inactive). For the same compound, the GI50 [41] was 30.7 µM (inactive), the GI50 [42] was 22.6 µM (inactive) and the GI50 [43] was > 100 µM (inactive). The GI50 [44] was 16.1 µM (inactive), the GI50 [45] was 8.75 µM (inactive) and the GI50 [46] was 27.5 µM (inactive). The GI50 [47] was > 100 µM (inactive), the GI50 [48] was > 10 µM (inactive) and the GI50 [49] was 56 µM (inactive). The GI50 [50] was 42.4 µM (inactive), the GI50 [51] was 6.44 µM (inactive) and the GI50 [52] was 37 µM (inactive). For the same compound, the GI50 [53] was 58.7 µM (inactive), the GI50 [54] was 22.8 µM (inactive) and the GI50 [55] was > 100 µM (inactive). For the same compound, the GI50 [56] was 74.5 µM (inactive), the GI50 [57] was > 100 µM (inactive) and the GI50 [58] was 23.6 µM (inactive).

Reference: ChEMBL document CHEMBL1201862, “PubChem BioAssay data set” (2004)
